Laboratory results as given in article PMC4172049 (Drug Design, Development and Therapy, 2014).

Target: T1, Human recombinant sPLA2-V (Homo sapiens, UniProt P39877)
T1 sequence (P39877 21-138): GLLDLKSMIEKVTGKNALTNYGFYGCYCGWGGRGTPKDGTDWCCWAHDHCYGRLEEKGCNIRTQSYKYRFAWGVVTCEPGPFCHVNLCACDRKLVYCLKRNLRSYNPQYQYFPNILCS
Experiment: sPLA2-V activity assay

IC50: 650 ± 150 nM
Compound: C[C@@H]1C[C@H]2[C@@H]3CCC4=CC(=O)C=C[C@]4(C)[C@@]3(F)[C@@H](O)C[C@]2(C)[C@@]1(O)C(=O)CO [Dexamethasone]
